The source made the active and inactive calls.
Tests used:
Homo sapiens [1] = species: Homo sapiens; test: Binding affinity to human recombinant Tau 2N4R expressed in Escherichia coli assessed as change in protein conformation at 10 mM measured for 60 mins by H/D exchange mass spectrometric analysis
Homo sapiens [2] = species: Homo sapiens; test: Inhibition of arachidonic acid-induced human recombinant Tau 2N4R fibrillation expressed in Escherichia coli preincubated for 1 hr prior to arachidonic acid challenge measured 6 hrs post arachidonic challenge by Thioflavin-S fluorescence assay
Homo sapiens [3] = species: Homo sapiens; test: Inhibition of arachidonic acid-induced human recombinant Tau 2N4R fibrillation expressed in Escherichia coli assessed as alpha helix formation at 125 uM preincubated for 1 hr prior to arachidonic acid challenge measured 28 hrs post arachidonic challenge by CD spectroscopic analysis
Homo sapiens [4] = species: Homo sapiens; test: Inhibition of human recombinant Tau 2N4R fibrillation expressed in Escherichia coli assessed as alpha helix formation at 125 uM after 1 hr by CD spectroscopic analysis
Homo sapiens [5] = species: Homo sapiens; test: Binding affinity to human recombinant Tau 2N4R expressed in Escherichia coli at 0.1 to 25 uM by SPR analysis

C/C=C(/C=O)[C@@H](CC=O)CC(=O)OCCc1ccc(O)cc1
active: Activity (Homo sapiens [1]) | inhibition (Homo sapiens [2]) Dose-dependent effect | inhibition (Homo sapiens [3]) | inhibition (Homo sapiens [4]) | Activity (Homo sapiens [5])

— ChEMBL document CHEMBL2169859, “Modulation of tau protein fibrillization by oleocanthal” (J Nat Prod, 2012)
